Test results from ChEMBL document CHEMBL3785014, “A Binding Site on IL-17A for Inhibitory Macrocycles Revealed by Hydrogen/Deuterium Exchange Mass Spectrometry” (J Med Chem, 2016).
Calls of active or inactive are those of the source.

What was measured:
[1] = biological target: Interleukin-17A (Homo sapiens) (UniProt Q16552); experiment: Binding affinity to recombinant human IL-17A assessed as protection from deuterium uptake at 58 to 71 residues at 10 uM after 10 to 3600 secs by HDX-MS
[2] = biological target: Interleukin-17A (Homo sapiens) (UniProt Q16552); experiment: Binding affinity to recombinant human IL-17A assessed as protection from deuterium uptake at 92 to 101 residues at 10 uM after 10 to 3600 secs by HDX-MS
[3] = biological target: Interleukin-17A (Homo sapiens) (UniProt Q16552); experiment: Binding affinity to recombinant human IL-17A assessed as increase in deuterium uptake at 102 to 116 residues at 10 uM after 10 to 3600 secs by HDX-MS
[4] = biological target: Interleukin-17A (Homo sapiens) (UniProt Q16552); experiment: Binding affinity to recombinant human IL-17A assessed as protection from deuterium uptake at 92 to 99 residues at 10 uM after 10 to 3600 secs by HDX-MS
[5] = biological target: Interleukin-17A (Homo sapiens) (UniProt Q16552); experiment: Binding affinity to recombinant human IL-17A assessed as increase in deuterium uptake at 104 to 116 residues at 10 uM after 10 to 3600 secs by HDX-MS
[6] = biological target: Interleukin-17A (Homo sapiens) (UniProt Q16552); experiment: Binding affinity to recombinant human IL-17A assessed as protection from deuterium uptake at 58 to 72 residues at 10 uM after 10 to 3600 secs by HDX-MS
[7] = biological target: Interleukin-17A (Homo sapiens) (UniProt Q16552); experiment: Binding affinity to recombinant human IL-17A assessed as protection from deuterium uptake at 90 to 101 residues at 10 uM after 10 to 3600 secs by HDX-MS
[8] = biological target: Interleukin-17A (Homo sapiens) (UniProt Q16552); experiment: Binding affinity to recombinant human IL-17A assessed as increase in deuterium uptake at 102 to 120 residues at 10 uM after 10 to 3600 secs by HDX-MS
[9] = biological target: Interleukin-17A (Homo sapiens) (UniProt Q16552); experiment: Binding affinity to recombinant human IL-17A assessed as protection from deuterium uptake at 99 to 103 residues at 10 uM after 10 to 3600 secs by HDX-MS
[10] = biological target: Interleukin-17A (Homo sapiens) (UniProt Q16552); experiment: Binding affinity to recombinant human IL-17A assessed as increase in deuterium uptake at 100 to 116 residues at 10 uM after 10 to 3600 secs by HDX-MS
[11] = biological target: Interleukin-17A (Homo sapiens) (UniProt Q16552); experiment: Binding affinity to recombinant human IL-17A assessed as increase in deuterium uptake at 103 to 114 residues at 10 uM after 10 to 3600 secs by HDX-MS

Measured: Activity

Sequence of Interleukin-17A (Homo sapiens) (Q16552 whole entry, the tested form may be a part): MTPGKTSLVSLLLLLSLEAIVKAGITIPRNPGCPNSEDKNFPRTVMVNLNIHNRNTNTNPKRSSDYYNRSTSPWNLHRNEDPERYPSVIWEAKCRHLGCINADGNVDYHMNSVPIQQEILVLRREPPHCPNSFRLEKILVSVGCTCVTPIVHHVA

O=C1CNC(=O)[C@@H](Cc2ccc(NC(=O)[C@H](Cc3ccccc3Cl)NC(=O)Cc3ccccc3)cc2)NC(=O)CC2(CCCC2)CC(=O)N[C@H](C(=O)O)CCCCN1
active: all assays above

O=C1CNC(=O)[C@@H](Cc2ccc(NC(=O)[C@H](Cc3ccccc3Cl)NC(=O)Cc3ccccc3)cc2)NC(=O)CC2(CCCC2)CC(=O)NCCCCCN1
active: all assays above

O=C1CC2(CCCC2)CC(=O)N[C@H](Cc2ccc(NC(=O)[C@H](Cc3ccccc3Cl)NC(=O)Cc3cccc(O)c3)cc2)C(=O)NCCOCCOCCN1
active: all assays above
